Experimental data: paper PMC8879074, “A Novel Small Molecular Prostaglandin Receptor EP4 Antagonist, L001, Suppresses Pancreatic Cancer Metastasis” (Molecules, 2022)

Target: EP4 (Homo sapiens, UniProt P35408)
Assay: TANGO assay (EP4/β-arrestin2 interaction)
Format: cell-based
Design: tTA transcription factor (C); expressed in transfected cells; host or cells: CHO-K1
Description: TANGO assay was performed as described previously with some modification. Briefly, CHO-K1 cells were co-transfected with plasmids of EP4-TANGO, β-arrestin-TEV and tTA-luc at a ratio of 0.5:1:1. After 4 h, transfected cells were seeded into 96-well plates and cultured overnight. Then, cells were starved for 5 h and treated with different concentrations of compounds. After incubation for 16 h, cells were lysed and the luciferase activities were determined using Dual-Luciferase Reporter Assay Kit (Promega, Madison, WI, USA).

Chain of EP4 (P35408 whole entry): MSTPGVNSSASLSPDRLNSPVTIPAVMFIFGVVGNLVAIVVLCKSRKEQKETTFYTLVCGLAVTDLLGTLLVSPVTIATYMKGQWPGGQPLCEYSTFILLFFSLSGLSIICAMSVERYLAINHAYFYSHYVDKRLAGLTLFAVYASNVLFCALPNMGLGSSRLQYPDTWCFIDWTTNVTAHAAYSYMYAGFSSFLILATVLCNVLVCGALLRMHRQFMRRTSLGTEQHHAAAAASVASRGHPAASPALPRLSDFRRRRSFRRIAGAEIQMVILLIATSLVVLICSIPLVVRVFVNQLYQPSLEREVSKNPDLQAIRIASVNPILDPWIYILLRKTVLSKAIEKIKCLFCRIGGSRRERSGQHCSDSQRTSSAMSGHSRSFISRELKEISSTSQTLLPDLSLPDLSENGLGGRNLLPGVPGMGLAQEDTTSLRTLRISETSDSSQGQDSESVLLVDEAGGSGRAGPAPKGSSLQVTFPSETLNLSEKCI

C[C@H](NC(=O)c1c(Cc2cccc(C(F)(F)F)c2)sc2c1CCOC2)c1ccc(C(=O)O)cc1 [L001]
IC50: 160 ± 30 pM
